Reference: publication PMC8636514, “Therapeutic potential of TRPM8 antagonists in prostate cancer” (Scientific Reports, 2021)

How the values were obtained:
[1] = tested on: PC3 cells; test: Wound scratch assay in PC3 cells; assay type: cell-based; conditions: cycling or quiescent cells, 10 nM R1881, compound 1 µM
Protocol: (§1) In wound scratch analysis, 1.8 × 10^5 cells were seeded in a 24-well plate and made quiescent. Cells were then wounded using 10 µl sterile pipette tips and washed with PBS. They were left un-stimulated or stimulated for the indicated times, in the absence or presence of the selected compounds. To avoid cell proliferation, cytosine arabinoside (Sigma-Aldrich) at 50 μM (final concentration) was included in the cell medium. Different fields were analysed by contrast-phase microscopy, as below described in this section. Migration and invasion assays were done as reported. In migration assay, we used 3 × 10^4 cells in collagen pre-coated Boyden’s chambers with 8 μm polycarbonate membrane (Falcon). The indicated stimuli were added to the upper and the lower chambers. […] Migrating and invading cells were scored by fluorescence microscopy, as below described in this section.
(§2) In wound scratch assay, different fields were analysed using DMIRB inverted microscope (Leica) equipped with N-Plan 10 × objective (Leica), as reported. LNCaP organoids were analysed using the same microscope equipped with C-Plan 40 × or HCX PL Fluotar 63 × objectives (Leica). […] The relative organoid size was calculated using the same software and expressed as a fold increase over the basal organoid size (measured at 3th day). The wound gap was calculated using Image J Software and expressed as % of the decrease in the wound area. […]

[2] = tested on: FAK, paxillin, ERK, RSK and Src tyrosine kinase; test: Western blot of androgen-induced rapid actions in LNCaP cells (Fig. 6c); assay type: cell-based, human; conditions: 10 nM R1881, 10 min, compound 1 μM
Source text: All performed as reported. The mouse monoclonal anti-AR (441; Santa Cruz) antibody was used in Co-Ip or WB approaches. TRPM8 was detected using the rabbit polyclonal anti-TRPM8 (NBP1-97311; Novus Biological). […] The rabbit polyclonal anti-ERK (C-14; Santa Cruz), antibody was used to detect total ERK. FAK and P-Tyr397 FAK were detected using the mouse monoclonal anti-FAK (Clone 77/610077 BD Transduction Laboratories) or anti P-Tyr397 FAK (Clone 14/611722; BD Transduction Laboratories) antibodies, respectively. P-Tyr118 paxillin and total paxillin were detected using the rabbit polyclonal anti-P-Y118 (#2541, Cell Signaling) or the mouse monoclonal anti-paxillin (clone 349; BD Biosciences) antibodies, respectively. […] P-Tyr 416 Src and Src were detected using the rabbit monoclonal anti P-Tyr 416 Src (#6943; Cell Signaling) or the mouse monoclonal anti Src (Calbiochem) antibodies, respectively. ERα and ERβ were detected using the rabbit polyclonal anti-ERα (543; Santa Cruz) or anti-ERβ (Upstate Biotechnology, U.S.A.) antibodies. Cyclin D1, p27 and Cdk4 were stained using the mouse monoclonal anti-cyclin D1 (clone AM29; from Zymed Laboratories Inc.), the rabbit polyclonal anti-p27 (C-19; Santa Cruz) or anti Cdk-4 (c-22; Santa Cruz) antibodies, respectively. The mouse monoclonal anti-tubulin (Sigma-Aldrich) antibody was used to detect tubulin. The ECL system (GE Healthcare) was employed to reveal immune-reactive proteins. Densitometric analysis of WB was performed by using Image J Software (https://imagej.nih.gov/ij).

[3] = tested on: LNCaP cells; test: Wound scratch assay in LNCaP cells; assay type: cell-based, human; conditions: 10 nM R1881, 20 h, compound 1 μM
Protocol: as §1, §2

[4] = tested on: DU145 cells; test: DNA synthesis (BrdU incorporation) in DU145 cells; assay type: cell-based; conditions: cycling or androgen-stimulated (10 nM R1881) cells, compound 1 µM
Protocol: (§3) Cells on coverslips were pulsed in vivo with BrdU (Sigma-Aldrich; at 100 μM, final concentration) and left unchallenged or challenged with 10 nM R1881 for 18 h, in the absence or presence of the indicated compounds. Cells were fixed, permeabilized, washed and the BrdU incorporation was analysed as reported. Nuclei were stained with Hoechst and cells on coverslips were scored by IF microscopy, using a DMLB Leica (Leica) fluorescent microscope, equipped with HCX PL Apo 63 × oil objective. Different fields from each coverslip were analyzed and BrdU incorporation was calculated by the formula: percentage of BrdU-positive cells = (No. of BrdU-positive cells/No. of total cells) × 100. Data in the graphs derive from at least 1000 scored cells for each coverslip. Representative images were captured using DC480 camera (Leica) and acquired using Leica Suite software. They are representative of three different experiments.

[5] = tested on: PC3 cells; test: DNA synthesis (BrdU incorporation) in PC3 cells; assay type: cell-based; conditions: cycling or androgen-stimulated (10 nM R1881) cells, compound 1 µM
Protocol: as §3

[6] = tested on: 22Rv1 cells; test: Transmigration assay, 22Rv1 cells; assay type: cell-based, human; conditions: 10 nM R1881, compound 1 μM; compared with LNCaP
Protocol: as §1, §2

[7] = tested on: DU145 cells; test: Wound scratch assay in DU145 cells; assay type: cell-based; conditions: cycling or quiescent cells, 10 nM R1881, compound 1 µM
Protocol: as §1, §2

| SMILES | wound closure [1] | androgen-elicited activation of FAK, paxillin, ERK, RSK and Src [2] | wound-gap closure in androgen-treated cells [3] | BrdU incorporation [4] | BrdU incorporation [5] | androgen-induced migration [6] | wound closure [7] |
| --- | --- | --- | --- | --- | --- | --- | --- |
| COC(=O)[C@H](Cc1c[nH]c2ccccc12)N(Cc1ccccc1)Cc1ccccc1 [Compound 6] | did not modify | impaired at similar extent | stronger effect | did not affect | did not affect | Superimposable results | did not modify |
| c1ccc(COc2ccc3[nH]cc(CCNCc4ccc(Oc5ccccc5)cc4)c3c2)cc1 [Compound 4] | did not modify | impaired at similar extent | stronger effect | did not affect | did not affect | Superimposable results | did not modify |
